# How the values were obtained:
# [1] = system: human nucleus pulposus cells; assay type: cell-based; details: ascorbic acid alone (170 μM in medium), culture 2 weeks; average ± SEM; control 4.33 ± 0.38
# CSGALNACT1 mRNA = assay type: cell-based, human; details: ascorbic acid alone; 1 week; GAPDH internal standard; average ± SEM
# ANGPT1 mRNA = assay type: cell-based, human; details: ascorbic acid alone; 1 week; GAPDH internal standard; average ± SEM
# IGF1 mRNA = assay type: cell-based, human; details: ascorbic acid alone; 1 week; GAPDH internal standard; average ± SEM
smiles,measurement,setting,value
"O=C1O[C@H]([C@@H](O)CO)C(O)=C1O [Ascorbic Acid, ascorbic acid]",The Ratio of GAG to DNA,[1],5.88 ± 0.73
same,Ratio to Expression Level of CSGALNACT1 mRNA in Control Taken as 1,CSGALNACT1 mRNA,2.25 ± 0.55
same,Ratio to Expression Level of ANGPT1 mRNA in Control Taken as 1,ANGPT1 mRNA,3.80 ± 0.91
same,Ratio to Expression Level of IGF1 mRNA in Control Taken as 1,IGF1 mRNA,8.92 ± 3.30
